# Experiments:
# FaDu cells = assay: CellTiter-Glo Luminescent Cell Viability Assay, Bouvardin with Taxol, FaDu; assay type: cell-based, human
# Description: “Combination Index” computation. Combination Indices were calculated using CalcuSyn software (Biosoft), which uses the method of Chou and Talalay. This method first computes drug-induced effect using the Hill Equation: where E is the measured effect; C is the drug concentration; Emax is the full range of drug effect, usually at or near 100%; IC50 is the drug concentration producing the median effect of 50%; and n is the curve shape parameter describing the steepness of the concentration-effect relationship. The Chou and Talalay method then linearizes the Hill Equation by logarithmic transformation as: where fu is the fraction of cells left unaffected after drug exposure, fa is the fraction of cells affected by the exposure, C is the drug concentration used, Cm is the concentration to achieve the median effect, and n is the curve shape parameter. Cm and n are equivalent to IC50 and n, respectively, in the Hill Equation. The values of n (obtained from the slope), nlog(Cm) (obtained from the absolute value of the intercept), and, therefore, Cm are obtained by plotting log(fu−1−1) versus log(C). […]
# The growth inhibitory effects of Bouvardin with Taxol were evaluated using CellTiter-Glo® Luminescent Cell Viability Assay (Promega G7570). […] Luminescence of each well was measured using an automated plate reader.
# [1] = system: grp (Chk1) mutant Drosophila larvae; assay: Drosophila larval survival to adulthood (eclosion), drug with and without IR, grp (Chk1) mutants; assay type: in vivo; conditions: for manner in which drug and radiation act together: grp (Chk1) mutants
# Description: To validate the identification of Bouvardin from the primary screen, the effect of this molecule on Drosophila larvae alone or in combination with radiation were assessed (FIG. 12). The screen was performed using irradiated mutant larvae. Hits from the screen were defined as those that reduced the survival of IRRADIATED larvae compared to the population of drugs being tested (approximately 80 molecules at a time) or compared to DMSO controls in the re-test. A hit could therefore act by enhancing the effect of radiation, or by simply killing larvae as a single agent, or both. To distinguish among these possibilities, hits from the screen were re-tested against larvae with and without irradiation.
# In FIG. 12 survival after each treatment is expressed as the fraction of animals that emerged (“eclosed”) as viable adults. The averages have been normalized to the average fraction eclosed in no IR/drug control for the respective genotype. Error bars extend beyond fractional survival of 1.0 simply because of normalization. (A-C) Fraction eclosed for WT and grp and p53 mutants at 16 uM of Bouvardin, with and without IR. The data are averages of 3-8 biological replicates per sample. Dotted line on each graph denotes expected ‘fraction eclosed’ if drug and IR act additively. IR doses were 4000R for WT and grp and 3000R for p53 because of the higher radiation sensitivity of the latter. (D) Fraction eclosed for Minute mutants and yw controls after exposure to 0 (−IR) and 2000R (+IR) of X-rays. N ranged from 86-207 per genotype per treatment, in 3 biological replicates per sample. *=p<0.01; **=<0.001. 100R=1Gy. Error bar=1 standard deviation.
# The activity of Bouvardin in Drosophila alone or in combination with ionizing radiation (IR) was assessed. Drug concentrations of 10-20 μM were used to approximate the conditions of the original screen. Third instar larvae were irradiated and cultured on medium containing drug. The survival of larvae was quantified 10 days later by measuring the rate of eclosion into adulthood. […]
structure (smiles),measurement,setting,value
"COc1ccc(C[C@H]2C(=O)N[C@H](C)C(=O)N(C)[C@@H]3C(=O)N(C)[C@@H](Cc4ccc(O)c(c4)Oc4ccc(cc4)[C@H]3O)C(=O)N[C@@H](C)C(=O)N[C@H](C)C(=O)N2C)cc1 (stereo in doubt) [Bouvardin, bouvardin]",Bouvardin concentration up to which synergy was seen when combined with taxol,FaDu cells; Det562 and FaDu (FIG. 18),up to 0.3 μM
same,interaction of Bouvardin with Taxol,FaDu cells; FaDu,synergy with Taxol over a wide range of concentrations
same,manner in which drug and radiation act together,[1],synergistic manner
same,manner in which drug and radiation act together,[1]; listed as bouvardin,appear to synergize
same,effect on the killing effect of radiation (+IR versus +both),"[1]; grp mutants, drug 10-20 μM",increased the killing effect of radiation in a statistically significant manner
